Target: T1, NPM-ALK-BaF3 (Homo sapiens, UniProt Q9UM73)
T1 construct: NPM (nuclear phosphoprotein / nucleophosmin, NPM1, P06748) fusion partner; expressed in transfected cells; host or cells: BaF3; the other entry of the earlier key: NPM1 (P06748, Nucleophosmin)
Assay: Growth inhibition of BaF3 cells stably transfected with kinase NPM-ALK (MTS)
Format: cell-based
Conditions: compound concentration 3.3 μM, read-out: cell growth inhibition rate, NPM-ALK
Protocol: The specific test method is given as follows:
2) Reagent: MTS reaction solution (containing 2 mg/mL of MTS [3-(4,5-dimethylthiazol-2-yl)-5-(3-carboxymethoxyphenyl)-2-(4-sulfophenyl)-2H-tetra zolium, inner Salt]; 100 µg/mL PES ([…])).

T1 sequence (Q9UM73 with tags, fused parts or gaps): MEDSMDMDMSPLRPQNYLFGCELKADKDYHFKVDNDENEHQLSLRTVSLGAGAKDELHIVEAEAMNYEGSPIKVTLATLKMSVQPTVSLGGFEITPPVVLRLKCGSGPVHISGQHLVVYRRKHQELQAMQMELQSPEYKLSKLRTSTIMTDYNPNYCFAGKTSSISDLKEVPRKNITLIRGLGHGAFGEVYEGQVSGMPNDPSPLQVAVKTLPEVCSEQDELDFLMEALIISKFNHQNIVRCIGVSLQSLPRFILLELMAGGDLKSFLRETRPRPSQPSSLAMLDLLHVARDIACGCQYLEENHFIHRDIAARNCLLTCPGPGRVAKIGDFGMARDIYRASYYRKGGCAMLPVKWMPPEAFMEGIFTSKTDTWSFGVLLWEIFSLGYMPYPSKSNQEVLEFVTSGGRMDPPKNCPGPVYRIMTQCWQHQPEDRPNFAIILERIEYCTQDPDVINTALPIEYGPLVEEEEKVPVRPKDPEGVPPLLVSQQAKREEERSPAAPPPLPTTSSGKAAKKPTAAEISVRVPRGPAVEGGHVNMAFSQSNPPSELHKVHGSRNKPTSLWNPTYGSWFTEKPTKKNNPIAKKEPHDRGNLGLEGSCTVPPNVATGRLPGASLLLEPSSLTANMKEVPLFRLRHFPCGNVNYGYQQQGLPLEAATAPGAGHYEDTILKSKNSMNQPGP

Row | inhibition at 3.3 µM | Structure (SMILES)
1 | 73.4% | COC(=O)c1cccc(Nc2nc(Nc3cc4c(cc3OC)CCN4C(=O)CN(C)C)nc3ccsc23)c1 [ID-1]
2 | 28.1% | CNC(=O)c1ccccc1Nc1nc(Nc2ccc(N3CCN(C)CC3)cc2)nc2ccsc12 [II-2]
3 | 46.3% | CNC(=O)c1ccccc1Nc1nc(Nc2ccc(N3CCC(N4CCN(C)CC4)CC3)cc2OC)nc2ccsc12 [II-1]
4 | 94.2% | COc1cc2c(cc1Nc1nc(NCc3ccccc3S(=O)(=O)C(C)C)c3sccc3n1)N(C(=O)CN(C)C)CC2 [IM-1]
5 | 53.1% | CC(C)S(=O)(=O)c1ccccc1CNc1nc(Nc2ccc(N3CCC(O)CC3)cc2)nc2ccsc12 [IM-4]
6 | 46.6% | CCOc1cc(N2CCN(C)CC2)ccc1Nc1nc(Nc2ccccc2C(=O)NC)c2sccc2n1 [II-4]
7 | 44.7% | COC(=O)c1cccc(Nc2nc(Nc3ccc(N4CCN(C)CC4)cc3OC)nc3ccsc23)c1 [ID-2]
8 | 97.3% | CC(C)S(=O)(=O)c1ccccc1Nc1nc(Nc2ccc(C(=O)N3CCN(C)CC3)cc2)nc2ccsc12 [IB-26]
9 | 73.7% | COc1cc2c(cc1Nc1nc(NCc3ccccc3S(C)(=O)=O)c3sccc3n1)N(C(=O)CN(C)C)CC2 [IL-1]
10 | 15.1% | CS(=O)(=O)Nc1ccccc1Nc1nc(Nc2ccc(S(N)(=O)=O)cc2)nc2ccsc12 [IH-7]
11 | 45.8% | CS(=O)(=O)c1ccccc1CNc1nc(Nc2ccc(N3CCC(O)CC3)cc2)nc2ccsc12 [IL-4]
12 | 26.7% | CS(=O)(=O)Nc1ccccc1Nc1nc(Nc2ccc(N3CCC(O)CC3)cc2)nc2ccsc12 [IH-4]
13 | 22.2% | COc1cc2c(cc1Nc1nc(Nc3cccc(NS(C)(=O)=O)c3)c3sccc3n1)N(C(=O)CN(C)C)CC2 [IG-1]
14 | 21.6% | CS(=O)(=O)Nc1cccc(Nc2nc(Nc3ccc(N4CCC(O)CC4)cc3)nc3ccsc23)c1 [IG-3]
15 | 55% | COc1cc(N2CCC(N3CCN(C)CC3)CC2)ccc1Nc1nc(Nc2cn(C)nc2S(=O)(=O)C(C)C)c2sccc2n1 [IC-2]
16 | 20.6% | COc1cc(N2CCC(N3CCN(C)CC3)CC2)ccc1Nc1nc(NCc2ccccc2S(=O)(=O)C(C)C)c2sccc2n1 [IM-2]

Row | inhibition at 3.3 µM | Structure (SMILES)
17 | 53.2% | CC(C)S(=O)(=O)c1nn(C)cc1Nc1nc(Nc2ccc(N3CCC(O)CC3)cc2)nc2ccsc12 [IC-4]
18 | 31.6% | CNC(=O)c1ccccc1Nc1nc(Nc2ccc(N3CCC(O)CC3)cc2)nc2ccsc12 [II-5]
19 | 82.4% | COc1cc2c(cc1Nc1nc(Nc3cn(C)nc3S(=O)(=O)C(C)C)c3sccc3n1)N(C(=O)CN(C)C)CC2 [IC-1]
20 | 46.5% | CC(C)S(=O)(=O)c1nn(C)cc1Nc1nc(Nc2ccc(N3CCN(C)CC3)cc2)nc2ccsc12 [IC-3]
21 | 54.8% | COc1cc(N2CCC(N3CCN(C)CC3)CC2)ccc1Nc1nc(NCc2ccccc2S(C)(=O)=O)c2sccc2n1 [IL-2]
22 | 96.5% | CCOc1cc(N2CCN(C)CC2)ccc1Nc1nc(Nc2ccccc2S(=O)(=O)C(C)C)c2sccc2n1 [IB-28]
23 | 3.07% | CS(=O)(=O)Nc1cccc(Nc2nc(Nc3ccc(S(N)(=O)=O)cc3)nc3ccsc23)c1 [IG-6]
24 | 52.5% | CC(C)S(=O)(=O)c1ccccc1CNc1nc(Nc2ccc(N3CCN(C)CC3)cc2)nc2ccsc12 [IM-3]
25 | 84.1% | CNC(=O)c1ccccc1Nc1nc(Nc2ccc(N3CCN(C)CC3)cc2OC)nc2ccsc12 [II-3]
26 | 56.8% | CN1CCN(c2ccc(Nc3nc(NCc4ccccc4S(C)(=O)=O)c4sccc4n3)cc2)CC1 [IL-3]
27 | 85.1% | COc1cc(N2CCC(N3CCN(C)CC3)CC2)ccc1Nc1nc(Nc2ccccc2NS(C)(=O)=O)c2sccc2n1 [IH-2]
28 | 79.2% | COc1cc(N2CCN(C)CC2)ccc1Nc1nc(Nc2ccccc2NS(C)(=O)=O)c2sccc2n1 [IH-3]
29 | 17.4% | COc1cc(N2CCC(N3CCN(C)CC3)CC2)ccc1Nc1nc(Nc2cccc(NS(C)(=O)=O)c2)c2sccc2n1 [IG-2]
30 | 97.5% | CC(C)S(=O)(=O)c1ccccc1Nc1nc(Nc2ccc(C(=O)N3CCC(N4CCN(C)CC4)CC3)cc2)nc2ccsc12 [IB-29]
31 | 12.7% | COc1cc2c(cc1Nc1nc(Nc3ccccc3NS(C)(=O)=O)c3sccc3n1)N(C(=O)CN(C)C)CC2 [IH-1]

The remaining lines, values behind:

Row | Structure (SMILES) | inhibition at 3.3 µM
32 | CCOc1cc(C(=O)N2CCC(N3CCN(C)CC3)CC2)ccc1Nc1nc(Nc2ccccc2S(=O)(=O)C(C)C)c2sccc2n1 [IB-13] | 90.3%
33 | CC(C)S(=O)(=O)c1ccccc1Nc1nc(Nc2ccc(N3CCN(C)CC3)cn2)nc2ccsc12 [IB-24] | 97.4%
34 | CCOc1cc(N2CCC(O)CC2)ccc1Nc1nc(Nc2ccccc2S(=O)(=O)C(C)C)c2sccc2n1 [IB-17] | 86%
35 | COc1cc(N2CCN(C)CC2)ccc1Nc1nc(Nc2ccccc2S(=O)(=O)C(C)C)c2sccc2n1 [IB-8] | 83.7%
36 | CC(C)S(=O)(=O)c1ccccc1Nc1nc(Nc2ccc(N3CCC(N4CCN(C)CC4)CC3)cc2)nc2ccsc12 [IB-6] | 93.2%
37 | CC(C)S(=O)(=O)c1ccccc1Nc1nc(Nc2ccc(S(=O)(=O)N3CCC(O)CC3)cc2)nc2ccsc12 [IB-11] | 60.9%
38 | CC(C)S(=O)(=O)c1ccccc1Nc1nc(Nc2ccc(N3CCOCC3)nc2)nc2ccsc12 [IB-16] | 77.5%
39 | COc1cc(N2CCC(O)CC2)ccc1Nc1nc(Nc2ccccc2S(=O)(=O)C(C)C)c2sccc2n1 [IB-19] | 84.9%
40 | CC(C)S(=O)(=O)c1ccccc1Nc1nc(Nc2ccc(OCc3ccccn3)cc2)nc2ccsc12 [IB-20] | 66%
41 | Cc1cc(Nc2nc(Nc3ccccc3S(=O)(=O)C(C)C)c3sccc3n2)c(OC(C)C)cc1C1CCN(C)CC1 [IB-9] | 88.5%
42 | COc1cc(C(=O)N2CCC(N3CCN(C)CC3)CC2)ccc1Nc1nc(Nc2ccccc2S(=O)(=O)C(C)C)c2sccc2n1 [IB-22] | 87.3%
43 | CC(C)S(=O)(=O)c1ccccc1Nc1nc(Nc2ccc(N3CCC(O)CC3)cc2)nc2ccsc12 [IB-4] | 96%
44 | CC(C)S(=O)(=O)c1ccccc1Nc1nc(Nc2ccc(N3CCN(C(=O)OC(C)(C)C)CC3)cc2)nc2ccsc12 [IB-25] | 61.4%
45 | CC(C)S(=O)(=O)c1ccccc1Nc1nc(Nc2ccc(N3CCOCC3)cc2)nc2ccsc12 [IB-15] | 83.3%
46 | CC(C)Oc1cc(N2CCC(O)CC2)ccc1Nc1nc(Nc2ccccc2S(=O)(=O)C(C)C)c2sccc2n1 [IB-18] | 66.1%
47 | CC(C)S(=O)(=O)c1ccccc1Nc1nc(Nc2ccc(N3CCC(O)CC3)nc2)nc2ccsc12 [IB-23] | 96.7%
48 | COc1cc(C2CCN(C)CC2)c(C)cc1Nc1nc(Nc2ccccc2S(=O)(=O)C(C)C)c2sccc2n1 [IB-5] | 88.9%
49 | CC(C)S(=O)(=O)c1ccccc1Nc1nc(Nc2ccc(N3CCC(O)CC3)cn2)nc2ccsc12 [IB-12] | 55.9%
50 | COc1cc(C2CCN(C)CC2)c(C)cc1Nc1nc(Nc2ccccc2S(C)(=O)=O)c2sccc2n1 [IA-5] | 90.9%
51 | COc1cc(N2CCC(N3CCCC3)CC2)ccc1Nc1nc(Nc2ccccc2S(=O)(=O)C(C)C)c2sccc2n1 [IB-7] | 92.8%
52 | CC(C)S(=O)(=O)c1ccccc1Nc1nc(Nc2ccc(N3CCN(C)CC3)cc2)nc2ccsc12 [IB-3] | 94.2%
53 | CC(C)S(=O)(=O)c1ccccc1Nc1nc(Nc2ccc(S(=O)(=O)N3CCN(C)CC3)cc2)nc2ccsc12 [IB-21] | 72.1%

From patent US11078213B2, “Thienopyrimidine compound, preparation method thereof, pharmaceutical composition and application thereof” (HONGYUN BIOTECH CO., LTD., priority 2016, dated 2021)
